Experimental data reported in patent publication US8883752B2, “5′ and 2′ BIS-substituted nucleosides and oligomeric compounds prepared therefrom” (Isis Pharmaceuticals, Inc., priority 2008, dated 2014).
Oligonucleotides are written 5' to 3', each unit as a sugar letter and its base; * is a phosphorothioate linkage, no mark a phosphodiester; rarer units and linkages stand in square brackets, end groups in braces. Plain capitals give the bases only. [DMAEAc-N] = 2'-O-dimethylaminoethyl acetamide sugar (N: the base); [5'R-Me-N] = (R)-5'-methyl-2'-deoxyribonucleoside (N: the base); {Py} = methylenephosphonate group, PO(OH)2CH2-; e = 2'-O-(2-methoxyethyl) (MOE); [5mC] = 5-methylcytosine; d = 2'-deoxy (DNA); m = 2'-O-methyl; {P} = phosphate; f = 2'-fluoro

Columns and labels:
[1] = In vivo stability: tissue level of intact compound (Example 66); parameters: species or system mouse; conditions: Balb/c mice
Description: […] were homogenized in a homogenation buffer (20 mM Tris, pH 8, 20 mM EDTA and 0.1 M NaCl in 0.5% NP-40) at time points 0, 5, 10, 20, 30, 40 and 60 minutes (Exception: 06/408877 at time points 0, 15, 30, 60, 120 and 240 mins, 06/409044, at time points 0, 0.5, 1, 2, 4, 8, and 18 hours). An internal standard (18/355868, a 27-mer, 2′-O-methoxyethyl-modified phosphorothioate oligonucleotide, or 19/116847, a 5-10-5 gapmer, 2′-O-methoxyethyl-modified phosphorothioate oligonucleotide) with concentration at 20 μg/g was added prior to extraction. Tissue samples were extracted with 70 μL of NH4OH and 240 μL of phenol/chloroform/isoamyl alcohol (25:24:1). The supernatant was removed after centrifugation at 14000 rpm for […]. The remaining extractant was vortexed with an additional 500 μL of water and the aqueous layer was removed and combined with the supernatant after centrifugation at 14000 rpm for 2 minutes.
Triethylammonium acetate solution at 1M (500 μL) was added to the supernatant. The aqueous layer of the mixture was loaded onto the pre-conditioned Biotage™ Phenyl Solid Phase Extraction Plate (SPE plate) after centrifugation at 9000 rpm for 20 minutes. The SPE plate was washed several times with water. The sample was then eluted with 1.5 mL of 1% TEA in 90% MeOH and filtered through the Protein Precipitation Plate (Phenomenex™). The elutent was evaporated to dryness and diluted to 200 μL with 50% quenching buffer (8 M urea, 50 mM EDTA) and water before sample injection.
An Agilent 1100 Series LC/MSD system was connected in-line to a mass spectrometry. Mass spectrometer was operated in the electrospray negative ionization mode. The nebulizer nitrogen gas was set at […] and the drying nitrogen gas was set at 12 L/min. The drying temperature was 325° C. Samples (25 μL/well) were introduced via an auto sampler and reversed-phase chromatography was carried out with an)(Bridge OST C18 2.5 μm 2.1 mm×50 mm HPLC column using a flow rate of 300 μL/min at 55° C. The ion pair buffers consisted of A: 5 mM tributylammonium acetate (TBAA) in 20% acetonitrile and B: […] TBAA in 90% acetonitrile and the loading buffer was 25 mM TBAA in 25% Acetonitrile. Separation was performed on a 30% to 70% B in 9 min and then 80% B in 11 min gradient.
Quantitative analysis of oligonucleotide and internal standard by extracted ion chromatograms of the most abundant ions was performed using MSD ChemStation software.
The in vivo stability of the three oligomeric compounds in Example 65 was evaluated. The tissue samples were obtained from the animals in which PTEN was assessed. Tissue samples were collected and prepared using the same technique described in Example 64. Quantitative analysis of the oligonucleotides standard were performed by extracted ion chromatograms in the most abundant charge state (−4) using Chemstation software. The tissue level (μg/g) of intact compound of ISIS 116847, 467074 and 467076 was measured and are provided below.

[2] = system: PTEN mRNA; test: PTEN mRNA levels in liver of Balb/c mice after single i.p. injection (Example 65); assay type: in vivo, mouse; conditions: 48 h; for Inhibition of PTEN in vivo (in words): 75 mg/kg; for % inhibition of PTEN mRNA expression: liver, single i.p. 75 mg/kg, normalized to saline-injected control
Description: In accordance with the present disclosure, oligomeric compounds were synthesized and tested for their ability to reduce PTEN expression in vivo at dose of 75 mg/kg. Six week old male Balb/c mice (Jackson Laboratory, Bar Harbor, Me.) were administered a single intraperitoneal (i.p) injection at 75 mg/kg of ISIS 467074 having a 5′-phosphate group and […] having a 5′-methylenephosphonate group, (PO(OH)2CH2—). A 5-10-5 gapped oligomer, ISIS 116847 having 2′-O-MOE modified nucleosides in wings with a 5′-phosphorothioate group was included for comparison.
Each dose group consisted of four animals. The mice were sacrificed 48 hours following the final administration to determine the PTEN mRNA levels in liver using real-time PCR and RIBOGREEN® RNA quantification reagent (Molecular Probes, Inc. Eugene, Oreg.) according to standard protocols. PTEN mRNA levels were determined relative to total RNA (using Ribogreen), prior to normalization to saline-treated control. Results are listed below as the average % inhibition of PTEN mRNA expression for each treatment group, normalized to saline-injected control.

[3] = Modified ssRNA 5′-phosphate serum stability assay; assay type: in vitro ADME; conditions: 10 μM in 95% fresh mouse serum, 37° C., 0-24 h, LC/MS
Description: A serum stability assay is useful for evaluating the stability of oligomeric compounds in the presences of nucleases and other enzymes found in serum. For example, the stability of a 5′-terminal phosphate group of an oligomeric compound can be evaluated by assessing the ability of the 5′-terminal phosphate group to remain attached to the oligomeric compound in the presence of serum. Accordingly, a serum stability assay was employed to evaluate the stability of modified ssRNAs having a 5′-terminal phosphate group.
Various modified ssRNAs, shown below, having a 5′-terminal phosphate group (10 μM) were dissolved in 95% of fresh mouse serum and incubated at 37° C. Aliquots of serum (100 μL) were removed after 0, 1, 3, 6 or 24 hours of incubation times. The serum samples were immediately quenched and snap frozen. The samples were extracted by the strong anion exchange (SAX) and octadecylsilyl (C-18) columns. For each incubation time, the amount of full length modified ssRNA having a 5′-terminal phosphate group was determined by LC/MS, and the half-life of the full length modified ssRNA having a 5′ terminal phosphate group was calculated. The results are expressed as half-time (T1/2) in the table below.

Substance | Tissue Level of intact compound ([1]; 75 mg/kg i.p., 48 h time point, LC-MS) [µg/g] | Level of intact compound in tissue (in words) ([1]; 75 mg/kg, 48 h) | Inhibition of PTEN in vivo (in words) [2] | % inhibition of PTEN mRNA expression [2] [%] | T1/2 (h) of full length modified ssRNA having a 5′-terminal phosphate group [3] [h] | Compound lacking the 5′-phosphate in tissue ([1]; 75 mg/kg, 48 h)
ISIS 116847: 5-10-5 gapped oligomer with 2′-O-MOE wings, included for comparison: meCeTeGemeCeTeAGmeCmeCTmeCTGGATeTeTeGeAe (e[5mC]*eT*eG*e[5mC]*eT*dA*dG*d[5mC]*d[5mC]*dT*d[5mC]*dT*dG*dG*dA*eT*eT*eT*eG*eA) [reference compound] | 131.1 | present at high levels | potent inhibitor of PTEN | 76 |  | 
ISIS 398701: modified ssRNA, SEQ ID NO 09: P-USfUfGfUfCfUfCfUfGfGfUfCfCfUfUfAfCfUfUf (antisense UUGUCUCUGGUCCUUACUU; 5'-phosphate, 2'-fluoro, phosphorothioate, chemistry not fully specified) |  |  |  |  | 18.2 | 
ISIS 404320: modified ssRNA targeting PTEN, SEQ ID NO 05: P-UfUfGfUfCfUfCfUfGfGfUfCfCfUfUfAfCfUfUfAeAe (antisense {P}-fUfUfGfUfCfUfCfUfGfGfUfCfCfU*fU*fA*fC*fU*fU*eA*eA; single-stranded RNA for RNAi) |  |  |  |  | 4 | 
ISIS 422391: modified ssRNA, SEQ ID NO 06: P-TdUfGfUfCfUfCfUfGfGfUfCfCfUfUfAfCfUfUfAeAe; d = 2′-O-DMAEAc (antisense {P}-[DMAEAc-T]fUfGfUfCfUfCfUfGfGfUfCfCfU*fU*fA*fC*fU*fU*eA*eA; single-stranded RNA for RNAi) |  |  |  |  | 6.5 | 
ISIS 432356: modified ssRNA, SEQ ID NO 06: P-TRUfGfUfCfUfCfUfGfGfUfCfCfUfUfAfCfUfUfAeAe; R = (R)-5′-methyl-2′-deoxyribonucleoside (antisense {P}-[5'R-Me-T]fUfGfUfCfUfCfUfGfGfUfCfCfU*fU*fA*fC*fU*fU*eA*eA; single-stranded RNA for RNAi) |  |  |  |  | 8.7 | 
ISIS 467074: modified ssRNA, SEQ ID NO 06: P-TScUfGmUfCmUfCmUfGmGfUmCfCmUfUmAfCmUfUmAeAe (antisense TUGUCUCUGGUCCUUACUUAA; 5'-phosphate, modified sugars, 2'-F/2'-OMe, MOE, chemistry not fully specified) |  | not detected | lowest amount of PTEN reduction | 11 |  | lacking the 5′-phosphate was detected
ISIS 467076: 5′-methylenephosphonate ssRNA, SEQ ID NO 05: Py-meUmUfGmUfCmUfCmUfGmGfUmCfCmUfUmAfCmUfUmAeAe (antisense {Py}-mT*fU*mGfU*mCfU*mCfU*mGfG*mUfC*mCfU*mU*fA*mC*fU*mU*eA*eA; further chemistry not fully specified) |  | present at a lower concentration | smaller inhibition of PTEN | 16 |  | 
